{"source": "patent US4336389A", "about": "“2-Substituted-4-aryl-5-thiazolecarboxylic acids and their derivatives as safening agents” (Monsanto Company, priority 1978, dated 1982)", "assay_type_in_all_cases": "in vivo", "key": {"rice [1]": {"system": "rice", "experiment": "Safening effect against butachlor injury to rice, safening agent and herbicide incorporated in soil (Example 15, Table I)", "design": "key: herbicide-alone + safener-alone effect (max 100) minus combined effect", "details": "safening agent 8.96 kg/h; butachlor 4.48 kg/h; ~21 days", "protocol": "(§1) A good grade of top soil is placed in a container and compacted to a depth of approximately 1.27 cm. from the top of said container. A predetermined number of rice seeds to be tested are placed on top of the soil. A quantity of soil sufficient to substantially fill the container is measured and placed in a second container. A measured quantity of the safening agent dispersed or dissolved in a suitable carrier is applied to the soil in the second container. A measured quantity of butachlor dispersed or dissolved in a suitable carrier is then sprayed on the soil already treated with the safening agent. The soil containing the safening agent and herbicide is thoroughly mixed. This mixing is sometimes referred to as incorporation of the herbicide and safening agent into the soil. The mixing or incorporation provides a substantially uniform distribution of the safening agent and herbicide throughout the soil. The seeds are covered with the soil containing the safening agent and herbicide and the pans are leveled. The pans are then placed on a sand bench in the greenhouse and watered from below as needed. The plants are observed at the end of approximately 21 days and the results in terms of percent inhibition of each seed lot are recorded. For each test series a pan of plants is also prepared containing no herbicide and no safening agent as a control. Additionally, for each test, a pan of plants is prepared with soil covering the seed containing no herbicide and only the measured amount of safening agent being incorporated into the soil covering the seeds to ascertain any herbicidal effect of the safening agent alone. For each series of tests the herbicidal effect of the herbicide is observed from pans of plants treated with the same quantity of herbicide alone. The \"safening effect\" is determined by adding the hericidal effect of the herbicide when applied alone to the herbicidal effect of the safening agent when applied alone (in no instance, however, will this sum be greater than 100) and substracting from that the herbicidal effect obtained when the herbicide and safening agent are incorporated into the soil as discussed above.\nTable I summarizes the results obtained when the compounds of the invention were tested in accordance with the procedure of Example 15."}, "rice [2]": {"system": "rice", "experiment": "Safening effect against butachlor injury to pre-soaked rice, soil surface application, flooded pots (Example 16, Table II)", "design": "key: herbicide injury alone + safener injury alone (max 100) minus combined injury", "details": "safening agent 1.12 kg/h, ~21 days, mean of two replicates", "protocol": "as §1\nA good grade of top soil is placed in a plastic pot. A measured quantity of the safening agent dispersed or dissolved in a suitable carrier is sprayed on the soil surface. A measured quantity of butachlor herbicide dissolved in a solvent is sprayed on the soil surface. Presoaked rice is seeded into the pots that were previously flooded with water and the water level lowered below the soil surface for one week. The pots are flooded at least up to the soil surface for the duration of the test. The plants are observed at the end of approximately 21 days and the results in terms of the percent inhibition of rice is recorded. As in Example 15, for each test pots are prepared containing soil treated only with butachlor. For each test, pots are also prepared containing soil treated only with the safening agent. Pots are also prepared in which the soil is not treated with either the herbicide or the safening agent. The safening effect is determined in accordance with Example 15.\nTable II summarizes the results obtained when the compounds of the invention were tested in accordance with the procedure of Example 16."}, "Barnyard Grass": {"system": "Barnyard Grass", "experiment": "Percent inhibition of barnyard grass, mixture incorporated in soil cover layer (Example 19, Table V)", "details": "~21 days", "description": "(§2) 5.08 cm. of a good grade of top soil is placed in a 7.62 cm. deep plastic pot. A predetermined number of weed seeds and rice seeds are applied to the soil surface. Butachlor and ethyl 2-chloro-4-phenyl-5-thiazolecarboxylate are applied to a soil cover layer as a mixture and incorporated by shaking the treated soil cover layer in a plastic bag. The cover layers were then placed on the pre-seeded pots. The plants are observed at the end of approximately 21 days and the results in terms of percent inhibition recorded. For each test, pots are prepared containing soil treated only with butachlor. For each test, pots are prepared containing soil treated only with the safening agent. Pots are also prepared with untreated soil."}, "Crabgrass": {"system": "Crabgrass", "experiment": "Percent inhibition of crabgrass, mixture incorporated in soil cover layer (Example 19, Table V)", "details": "~21 days", "description": "as §2"}, "Panicum": {"system": "Panicum", "experiment": "Percent inhibition of panicum, mixture incorporated in soil cover layer (Example 19, Table V)", "details": "~21 days", "description": "as §2"}, "Foxtail": {"system": "Foxtail", "experiment": "Percent inhibition of foxtail, mixture incorporated in soil cover layer (Example 19, Table V)", "details": "~21 days", "description": "as §2"}, "rice [3]": {"system": "rice", "experiment": "Percent inhibition of rice, mixture incorporated in soil cover layer (Example 19, Table V)", "details": "~21 days", "description": "as §2"}, "[4]": {"details": "safening agent 8.96 kg/h + butachlor 2.24 kg/h"}, "[5]": {"details": "safening agent 8.96 kg/h + butachlor 4.48 kg/h"}, "[6]": {"details": "safening agent 8.96 kg/h + butachlor 8.96 kg/h"}}}
{"molecule": "CCOC(=O)c1sc(Cl)nc1-c1ccccc1", "note": "[Example 1, Ethyl 2-Chloro-4-Phenyl-5-Thiazolecarboxylate]", "values": [{"measurement": "Safening Effect", "setting": "rice [1]", "result": 75}, {"measurement": "Safening Effect", "setting": "rice [2]; butachlor 0.14 kg/h", "result": 78}, {"measurement": "Safening Effect", "setting": "rice [2]; butachlor 0.56 kg/h", "result": 99}, {"measurement": "Percent Inhibition, Barnyard Grass", "setting": "Barnyard Grass; [4]", "result": 100, "unit": "%"}, {"measurement": "Percent Inhibition, Barnyard Grass", "setting": "Barnyard Grass; [5]", "result": 100, "unit": "%"}, {"measurement": "Percent Inhibition, Barnyard Grass", "setting": "Barnyard Grass; [6]", "result": 100, "unit": "%"}, {"measurement": "Percent Inhibition, Barnyard Grass", "setting": "Barnyard Grass; safening agent alone 8.96 kg/h", "result": 0, "unit": "%"}, {"measurement": "Percent Inhibition, Crabgrass", "setting": "Crabgrass; [4]", "result": 100, "unit": "%"}, {"measurement": "Percent Inhibition, Crabgrass", "setting": "Crabgrass; [5]", "result": 100, "unit": "%"}, {"measurement": "Percent Inhibition, Crabgrass", "setting": "Crabgrass; [6]", "result": 100, "unit": "%"}, {"measurement": "Percent Inhibition, Crabgrass", "setting": "Crabgrass; safening agent alone 8.96 kg/h", "result": 0, "unit": "%"}, {"measurement": "Percent Inhibition, Panicum", "setting": "Panicum; [4]", "result": 100, "unit": "%"}, {"measurement": "Percent Inhibition, Panicum", "setting": "Panicum; [5]", "result": 100, "unit": "%"}, {"measurement": "Percent Inhibition, Panicum", "setting": "Panicum; [6]", "result": 100, "unit": "%"}, {"measurement": "Percent Inhibition, Panicum", "setting": "Panicum; safening agent alone 8.96 kg/h", "result": 0, "unit": "%"}, {"measurement": "Percent Inhibition, Foxtail", "setting": "Foxtail; [4]", "result": 100, "unit": "%"}, {"measurement": "Percent Inhibition, Foxtail", "setting": "Foxtail; [5]", "result": 100, "unit": "%"}, {"measurement": "Percent Inhibition, Foxtail", "setting": "Foxtail; [6]", "result": 100, "unit": "%"}, {"measurement": "Percent Inhibition, Foxtail", "setting": "Foxtail; safening agent alone 8.96 kg/h", "result": 0, "unit": "%"}, {"measurement": "Percent Inhibition, Rice", "setting": "rice [3]; [4]", "result": 8, "unit": "%"}, {"measurement": "Percent Inhibition, Rice", "setting": "rice [3]; [5]", "result": 43, "unit": "%"}, {"measurement": "Percent Inhibition, Rice", "setting": "rice [3]; [6]", "result": 45, "unit": "%"}, {"measurement": "Percent Inhibition, Rice", "setting": "rice [3]; safening agent alone 8.96 kg/h", "result": 0, "unit": "%"}]}
